These results are taken from US20230000869A1, “NOVEL ALK2 INHIBITORS AND METHODS FOR INHIBITING BMP SIGNALING” (The Brigham and Women's Hospital, Inc., priority 2017, published 2023).

The target of one test is ACVR2B (Homo sapiens, UniProt Q13705). The test is described as follows: LanthaScreen Eu kinase binding assay, BMP type II receptor ACVR2B. As to conditions: 10-point titration from 10 μM, 3-fold serial dilution, Life Technologies. On the procedure:
(§1) Kinase Profiling BMP Type II Receptor Experimental Procedure (Life Technologies, 5225 Vernona Road, Madison, Wis. 53744)
(§2) The measurement of each compound's half maximal inhibitory concentration (IC50) for BMP type II receptors (ACVR2A, ACVR2B, BMPR2 and TGFbR2) was carried out at Life Technologies by using its 10-point titration (starting concentration: 10 μM with 3-fold serial dilution) LanthaScreen™ biochemical kinase assay protocol. For the detailed description of LanthaScreen™ Eu kinase binding assay condition, please see: https://www.thermofisher.com/us/en/home/industrial/pharma-biopharma/drug-discovery-development/target-and-lead-identification-and-validation/kinasebiology/kinase-activity-assays/lanthascreentm-eu-kinas e-binding-assay/lanthascreen-eu-kinase-binding-assay-validation-table.html.

The next test addresses T1, BMPR2 (Homo sapiens, UniProt Q13873).
T1 sequence (Q13873 27-1038): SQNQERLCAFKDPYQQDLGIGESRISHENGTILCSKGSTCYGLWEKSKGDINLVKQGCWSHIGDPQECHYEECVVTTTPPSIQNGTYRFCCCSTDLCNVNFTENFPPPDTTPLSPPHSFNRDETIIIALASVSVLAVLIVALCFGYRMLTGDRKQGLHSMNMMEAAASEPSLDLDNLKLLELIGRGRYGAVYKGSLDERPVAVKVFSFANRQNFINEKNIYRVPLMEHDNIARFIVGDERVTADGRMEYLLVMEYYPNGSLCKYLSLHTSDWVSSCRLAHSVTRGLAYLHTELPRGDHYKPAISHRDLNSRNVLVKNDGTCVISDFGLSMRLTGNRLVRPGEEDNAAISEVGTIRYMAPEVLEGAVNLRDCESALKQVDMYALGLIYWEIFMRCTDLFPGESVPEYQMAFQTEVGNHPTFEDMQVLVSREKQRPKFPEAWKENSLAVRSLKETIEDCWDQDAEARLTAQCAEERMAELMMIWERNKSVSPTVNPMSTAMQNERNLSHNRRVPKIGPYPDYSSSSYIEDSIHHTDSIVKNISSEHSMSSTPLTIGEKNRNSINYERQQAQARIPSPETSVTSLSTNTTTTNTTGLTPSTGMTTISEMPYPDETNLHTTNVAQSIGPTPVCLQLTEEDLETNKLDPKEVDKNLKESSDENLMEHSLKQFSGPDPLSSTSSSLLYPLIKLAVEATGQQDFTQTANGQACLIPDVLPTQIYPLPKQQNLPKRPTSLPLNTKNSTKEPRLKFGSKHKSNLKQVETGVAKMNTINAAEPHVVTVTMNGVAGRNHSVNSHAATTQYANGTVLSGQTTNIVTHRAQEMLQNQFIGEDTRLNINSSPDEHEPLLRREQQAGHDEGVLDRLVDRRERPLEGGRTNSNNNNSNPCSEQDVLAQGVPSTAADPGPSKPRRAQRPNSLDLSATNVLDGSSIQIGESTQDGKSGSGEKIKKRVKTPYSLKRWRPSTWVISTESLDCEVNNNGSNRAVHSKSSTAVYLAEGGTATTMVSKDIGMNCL
The test is described as follows: LanthaScreen Eu kinase binding assay, BMP type II receptor BMPR2. As to conditions: 10-point titration from 10 μM, 3-fold serial dilution, Life Technologies. On the procedure: as §1, §2

ACVR2B, sequence (Q13705 19-512): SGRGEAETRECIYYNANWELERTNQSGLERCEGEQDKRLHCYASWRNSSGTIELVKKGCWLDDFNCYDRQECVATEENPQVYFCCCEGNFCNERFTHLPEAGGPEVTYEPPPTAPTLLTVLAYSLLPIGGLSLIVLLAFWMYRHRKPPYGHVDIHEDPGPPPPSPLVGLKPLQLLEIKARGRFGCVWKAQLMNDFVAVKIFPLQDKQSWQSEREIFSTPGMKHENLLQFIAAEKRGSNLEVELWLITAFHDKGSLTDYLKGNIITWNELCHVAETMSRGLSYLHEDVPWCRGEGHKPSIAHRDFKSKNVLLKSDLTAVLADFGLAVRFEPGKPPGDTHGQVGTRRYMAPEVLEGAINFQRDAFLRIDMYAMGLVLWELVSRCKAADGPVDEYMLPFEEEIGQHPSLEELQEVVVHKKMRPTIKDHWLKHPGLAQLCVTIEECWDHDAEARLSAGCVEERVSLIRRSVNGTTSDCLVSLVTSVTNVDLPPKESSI

One may read the IC50 as the concentration that inhibits the measured activity by half. Read a low IC50 as greater potency in that assay. For the compound `Cc1cc(-c2cnn3cc(N4CCC(N5CCN(C)CC5)CC4)cnc23)c2ccccc2n1` [Compound 8], the IC50 is 745 nM on ACVR2B and > 10000 nM on BMPR2.

Turning to `c1ccc2c(-c3cnn4cc(-c5ccc(N6CCNCC6)cc5)cnc34)ccnc2c1` [TRND00262637-13], the results for the concentration for half-maximal inhibition (IC50) on ACVR2B and on BMPR2 were 20 nM and > 10000 nM, respectively.
